Key:
E. faecalis (CL 4877) = experiment: Zone of inhibition screen, 96 well agar array format; assay type: cell-based; parameters: scale not given here; conditions: zone of inhibition relative to 1 mg/ml stock solution of p-chlorobiphenylvancomycin
How it was run: (§1)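 Panel screening of every compound against several bacterial strains, among them E. faecium ATCC 49624, was done in a 96-well agar array.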

[1] = tested on: E. faecalis (ATCC 292121); experiment: as above; assay type: cell-based; conditions: zone of inhibition relative to 1 mg/ml stock solution of p-chlorobiphenylvancomycin
Procedure: The antibacterial activity of each of the compounds against the bacterial strains E. faceium (ATCC 49624), S. epidermidis (ATCC 12228), S. aureus (ATCC 29213), E. faecalis (CL 4877) and E. faecalis (ATCC 292121) was tested. Each of the compounds was screened in a 96 will agar array format.

E. Faecalis CL 4877 = experiment: MIC determination in BHI media, OD600; assay type: cell-based; conditions: BHI + 0.1% casamino acids, 18 hours at 37° C., ≧90% OD600 inhibition
How it was run: (§2)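 Starting cell density was near 5×10^5 CFU/ml, taken from exponentially growing cultures. Incubation with the DMSO dilution series ran 18 hours at 37° C.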

S aureus ATCC 29213 = experiment: MIC determination in BHI media, OD600; assay type: cell-based; conditions: BHI + 0.1% casamino acids, 18 hours at 37° C., ≧90% OD600 inhibition
How it was run: as §2

E. faecium ATCC 49624 = experiment: MIC determination in BHI media, OD600; assay type: cell-based; conditions: BHI + 0.1% casamino acids, 18 hours at 37° C., ≧90% OD600 inhibition
How it was run: as §2

E. faecalis ATCC 29212 = experiment: MIC determination in BHI media, OD600; assay type: cell-based; conditions: BHI + 0.1% casamino acids, 18 hours at 37° C., ≧90% OD600 inhibition
How it was run: as §2

S. Aureus ATCC 33591 = experiment: MIC determination in BHI media, OD600; assay type: cell-based; conditions: BHI + 0.1% casamino acids, 18 hours at 37° C., ≧90% OD600 inhibition
How it was run: as §2

S. aureus (ATCC 29213) = experiment: Zone of inhibition screen, 96 well agar array format; assay type: cell-based; parameters: scale not given here; conditions: zone of inhibition relative to 1 mg/ml stock solution of p-chlorobiphenylvancomycin
How it was run: as §1

E. faceium (ATCC 49624) = experiment: as above; assay type: cell-based, E. faecium; conditions: zone of inhibition relative to 1 mg/ml stock solution of p-chlorobiphenylvancomycin;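 also: score 3 means fourfold and score 4 sixteenfold the reference zone size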
How it was run: as §1

E. faecium CL 4931 = experiment: MIC determination in BHI media, OD600; assay type: cell-based; conditions: BHI + 0.1% casamino acids, 18 hours at 37° C., ≧90% OD600 inhibition
How it was run: as §2

[2] = tested on: S. epidermidis (ATCC 12228); experiment: Zone of inhibition screen, 96 well agar array format; assay type: cell-based; parameters: scale not given here; conditions: zone of inhibition relative to 1 mg/ml stock solution of p-chlorobiphenylvancomycin
How it was run: as §1
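For zone score, E. faecalis ATCC 29212 in this document: score 3 means fourfold and score 4 sixteenfold the reference zone size.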

Row | MIC E. faecalis CL 4877 (E. Faecalis CL 4877) | MIC S. aureus ATCC 29213 (S aureus ATCC 29213) | MIC E. faecium ATCC 49624 (E. faecium ATCC 49624) | MIC E. faecalis ATCC 29212 (E. faecalis ATCC 29212) | MIC S. aureus ATCC 33591 (S. Aureus ATCC 33591) | MIC E. faecium CL 4931 (E. faecium CL 4931) | SMILES | zone score, E. faecalis CL 4877 (E. faecalis (CL 4877)) | zone score, E. faecalis ATCC 29212 [1] | zone score, S. aureus ATCC 29213 (S. aureus (ATCC 29213)) | zone score, E. faecium ATCC 49624 (E. faceium (ATCC 49624)) | zone score, S. epidermidis ATCC 12228 [2]
1 |  | 0.78 µg/mL | 0.39 µg/mL |  | 0.78 µg/mL | 25 µg/mL | CC(O)C(N)C(=O)NC1C(=O)NC(CC(N)=O)C(=O)NC2C(=O)NC3C(=O)NC(C(=O)NC(C(=O)O)c4cc(O)cc(O)c4-c4cc3ccc4O)C(O)c3ccc(c(Cl)c3)Oc3cc2cc(c3OC2OC(CO)C(O)C(O)C2OC2CC(C)(NCc3ccc(-c4ccc(Cl)cc4)cc3)C(O)C(C)O2)Oc2ccc(cc2Cl)C1O (stereo not drawn) [Compound 64] | 2 | 2 |  |  | 
2 | 25 µg/mL |  | 0.39 µg/mL |  |  | 25 µg/mL | CC1OC(OC2C(Oc3c4cc5cc3Oc3ccc(cc3Cl)C(O)C3NC(=O)C(NC(=O)C5NC(=O)C(CC(N)=O)NC(=O)C(NC(=O)C(N)CCCCNC(=O)CCCCC5SCC6NC(=O)NC65)C(O)c5ccc(c(Cl)c5)O4)c4ccc(O)c(c4)-c4c(O)cc(O)cc4C(C(=O)O)NC3=O)OC(CO)C(O)C2O)CC(C)(NCc2ccc(-c3ccc(Cl)cc3)cc2)C1O (stereo not drawn) [Compound 75] | 2 | 2 |  | 2 | 2
3 | > 25 µg/mL | > 25 µg/mL | > 25 µg/mL | > 25 µg/mL | > 25 µg/mL | > 25 µg/mL | CC1OC(OC2C(Oc3c4cc5cc3Oc3ccc(cc3Cl)C(O)C3NC(=O)C(NC(=O)C5NC(=O)C(CC(N)=O)NC(=O)C(N)C(O)c5ccc(c(Cl)c5)O4)c4ccc(O)c(c4)-c4c(O)cc(O)cc4C(C(=O)O)NC3=O)OC(CO)C(O)C2O)CC(C)(NCc2ccc(-c3ccc(Cl)cc3)cc2)C1O (stereo not drawn) [Compound 522, Des-Lecyl Vancomycin, reference compound] |  |  |  |  | 
4 | 25 µg/mL | 0.78 µg/mL | 0.39 µg/mL | 0.78 µg/mL | 0.39 µg/mL | 25 µg/mL | C[C@H]1O[C@H](O[C@H]2[C@H](Oc3c4cc5cc3Oc3ccc(cc3Cl)[C@@H](O)[C@@H](NC(=O)[C@H](N)Cc3cccnc3)C(=O)N[C@@H](CC(N)=O)C(=O)N[C@H]5C(=O)N[C@H]3C(=O)N[C@H](C(=O)N[C@@H](C(=O)O)c5cc(O)cc(O)c5-c5cc3ccc5O)[C@H](O)c3ccc(c(Cl)c3)O4)O[C@H](CO)[C@@H](O)[C@@H]2O)C[C@@](C)(NCc2ccc(-c3ccc(Cl)cc3)cc2)[C@H]1O [Compound 556] |  |  |  |  | 

Second part, the compound before the results:

Row | SMILES | MIC E. faecalis CL 4877 (E. Faecalis CL 4877) | MIC S. aureus ATCC 29213 (S aureus ATCC 29213) | MIC E. faecium ATCC 49624 (E. faecium ATCC 49624) | MIC E. faecalis ATCC 29212 (E. faecalis ATCC 29212) | MIC S. aureus ATCC 33591 (S. Aureus ATCC 33591) | MIC E. faecium CL 4931 (E. faecium CL 4931) | zone score, E. faecalis CL 4877 (E. faecalis (CL 4877)) | zone score, E. faecalis ATCC 29212 [1] | zone score, S. aureus ATCC 29213 (S. aureus (ATCC 29213)) | zone score, E. faecium ATCC 49624 (E. faceium (ATCC 49624)) | zone score, S. epidermidis ATCC 12228 [2]
5 | CNCC(=O)N[C@H]1C(=O)N[C@@H](CC(N)=O)C(=O)N[C@H]2C(=O)N[C@H]3C(=O)N[C@H](C(=O)N[C@@H](C(=O)O)c4cc(O)cc(O)c4-c4cc3ccc4O)[C@H](O)c3ccc(c(Cl)c3)Oc3cc2cc(c3O[C@@H]2O[C@H](CO)[C@@H](O)[C@H](O)[C@H]2O[C@@H]2C[C@@](C)(NCc3ccc(-c4ccc(Cl)cc4)cc3)[C@@H](O)[C@@H](C)O2)Oc2ccc(cc2Cl)[C@H]1O [Compound 8] |  |  |  |  |  |  | 2 | 2 |  |  | 
6 | C[C@H]1O[C@H](O[C@H]2[C@H](Oc3c4cc5cc3Oc3ccc(cc3Cl)[C@@H](O)[C@@H](NC(=O)[C@H](N)COC(C)(C)C)C(=O)N[C@@H](CC(N)=O)C(=O)N[C@H]5C(=O)N[C@H]3C(=O)N[C@H](C(=O)N[C@@H](C(=O)O)c5cc(O)cc(O)c5-c5cc3ccc5O)[C@H](O)c3ccc(c(Cl)c3)O4)O[C@H](CO)[C@@H](O)[C@@H]2O)C[C@@](C)(NCc2ccc(-c3ccc(Cl)cc3)cc2)[C@H]1O [Compound 17] | 3.91 µg/mL | 0.062 µg/mL | 0.062 µg/mL | 0.25 µg/mL | 0.12 µg/mL |  |  |  |  |  | 
7 | C[C@H]1O[C@H](O[C@H]2[C@H](Oc3c4cc5cc3Oc3ccc(cc3Cl)[C@@H](O)[C@@H](NC(=O)[C@H](N)Cc3c[nH]c6ccccc36)C(=O)N[C@@H](CC(N)=O)C(=O)N[C@H]5C(=O)N[C@H]3C(=O)N[C@H](C(=O)N[C@@H](C(=O)O)c5cc(O)cc(O)c5-c5cc3ccc5O)[C@H](O)c3ccc(c(Cl)c3)O4)O[C@H](CO)[C@@H](O)[C@@H]2O)C[C@@](C)(NCc2ccc(-c3ccc(Cl)cc3)cc2)[C@H]1O [Compound 25] |  | 0.25 µg/mL | 0.25 µg/mL | 0.39 µg/mL | 0.25 µg/mL |  | 2 | 2 | 2 | 2 | 
8 | C[C@H]1O[C@H](O[C@H]2[C@H](Oc3c4cc5cc3Oc3ccc(cc3Cl)[C@@H](O)[C@@H](NC(=O)CN)C(=O)N[C@@H](CC(N)=O)C(=O)N[C@H]5C(=O)N[C@H]3C(=O)N[C@H](C(=O)N[C@@H](C(=O)O)c5cc(O)cc(O)c5-c5cc3ccc5O)[C@H](O)c3ccc(c(Cl)c3)O4)O[C@H](CO)[C@@H](O)[C@@H]2O)C[C@@](C)(NCc2ccc(-c3ccc(Cl)cc3)cc2)[C@H]1O [Compound 28] |  |  |  |  |  |  | 2 | 2 |  | 2 | 
9 | CC1OC(OC2C(Oc3c4cc5cc3Oc3ccc(cc3Cl)C(O)C3NC(=O)C(NC(=O)C5NC(=O)C(CC(N)=O)NC(=O)C(NC(=O)C(N)CCC(N)=O)C(O)c5ccc(c(Cl)c5)O4)c4ccc(O)c(c4)-c4c(O)cc(O)cc4C(C(=O)O)NC3=O)OC(CO)C(O)C2O)CC(C)(NCc2ccc(-c3ccc(Cl)cc3)cc2)C1O (stereo not drawn) [Compound 57] |  |  |  |  |  |  |  | 2 |  | 2 | 
